According to patent US11759438B2, “Compositions and methods for treating ocular pathologies” (priority 2017, dated 2023):
Where two headings read alike, the source gives them in different places.

Columns and labels:
HSV-1 = test system: HSV-1; set-up: species or system mice; conditions: 500 nM; for HSV-1 reactivation from latency (in words): ex vivo TG explants
[1] = test system: human microvascular endothelial cells (HMEC) spheroids; test: Spheroid tubule growth assay; format: cell-based; conditions: matrigel with VEGF; serotonin 50 nM, R-DOI 100 nM, TCB2 500 nM
Description: FIG. 16 is a series of fluorescent micrographs showing the effect of 5HT2A receptor agonists on vascular tubule growth from tissue-like spheroids.
HMEC cells were cultured in specially coated U-shaped bottom 96 well plates in order to form tissue-like three-dimension spheroids. Spheroids were subsequently implanted into wells that contained matrigel basement membranes supplemented with vascular endothelial growth factor (VEGF) or starved (Starvation control-no VEGF). Culture media was treated with either serotonin (50 nM), (R-DOI (100 nM), or TCB2 (500 nM) outgrowth from the spheroids of vascular-like structures was monitored microscopically.

[2] = test system: VEGF-mediated corneal vascularization; test: VEGF-mediated ocular vascularization model, topical DOI; format: in vivo, rabbit; conditions: eyes treated with DOI
Description: A rabbit corneal micropocket assay is used to assess the ability of topically administered DOI to prevent VEGF-mediated corneal vascularization. VEGF or saline control slow release micropellets are generated as described previously. A corneal micropocket is created in each rabbit eye 3.0 mm from the corneal limbus, and micropellets are implanted. Starting the day after implant, paired OD and OS eyes are treated four times daily with either control (OD eyes) or DOI (OS eyes) drops, respectively. The utilization of sister eyes for topical drug evaluation controls for animal-to-animal variability. Eyes are clinically assessed daily and imaged by slit lamp biomicroscopy as described in all other ocular studies herein.
VEGF-induced vascularization and vessel permeability can lead to corneal edema, inflammation, and ocular clouding. Therefore, a panel of clinical parameters (described herein) is assessed daily by fluorescent slit-lamp biomicroscopy to ascertain the therapeutic effects of topical DOI treatment on vascularization-mediated eye disease.
VEGF is a known mediator of vascular permeability and we have observed in this model system that edema and chemosis is common, irrespective of the extent of vascularization induced. […]

[3] = test system: Herpes Simplex Virus type 1 (HSV-1) RE strain; test: Herpes stromal keratitis model, BALB/c mice, topical eye drops, clinical scoring and histology; format: in vivo; conditions: for animal body weight: HSV-1 infected mice, relative to BSS controls; for HSV-induced pathological vascularization of the eye: mouse models of herpetic keratitis, ophthalmic formulation
Description: DOI drops were topically applied for 7 days post infection and chronic disease was assessed up to day 15.
There is a complete absence of inflammatory or red blood cells and no vascularization of corneal tissue. 2nd row panels: HSV infection and long-term inflammatory responses induces disruption of the epithelial layer, thickening of the stroma, and identifiable vascularization of corneal tissue (yellow arrows) with extensive presence of immune infiltrates.
16 BALB/c mice were randomly sorted into 3 treatment arms: 1) Ophthalmic Balanced Saline Solution diluted 1:1 in PBS (BSS+PBS) treated (6 mice); 2) DOI treated (XTPFDOI) (5 mice); 3) 1.0% TFT (TFT+PBS) (5 mice). Animals were anesthetized with […]:ketamine and both eyes were scarified in a cross hatch pattern using a curved needle. Immediately following ocular scarification, eyes were inoculated with a 3 microliter drop containing 10,000 plaque forming units (PFU) of Herpes Simplex Virus type 1 (HSV-1) RE strain. The next morning following infection, animals were treated with the respective treatment as assigned within their treatment arm. Treatments were applied topically to the eye in a 4 microliter drop. Drops were applied 4 time per day from 9:00 am to 5:30 pm, starting immediately following clinical scoring. Treatments were applied for the first 8 days post infection and then stopped. Clinical scoring was done using a slit lamp biomicroscope magnified at 16× on the days indicated by a single individual masked to the drug treatment parameters. Slit lamp biomicroscopy also included fluorescein exclusion labeling of the corneal surface following scoring of all clinical parameters. Each eye was scored independently. Animal deaths were recorded if euthanasia was required due to severe encephalitis or if animals died from HSV-associated disease. Clinically clear eyes were scored as such if no apparent signs of disease were present in any clinical parameter during the chronic phase.
At day 15 post infection, a stage that would be during chronic immune-associated disease with no virus present, animals were euthanized and the eyes were removed for histology. Random representative eyes were prepared by taking sections through the central cornea and processed by H&E histology for visualization. Sections were examined microscopically and photographed across the central cornea.

[4] = test system: Herpes Simplex Virus type 1 (HSV-1) RE strain; test: Herpes stromal keratitis model, C57bl/6 mice, topical eye drops; format: in vivo
aortic rings = test: Aortic ring assay (VEGF-mediated neovascularization); set-up: species or system mice
Description: FIG. 13 is a series of photographs showing VEGF-mediated neovascularization from aortic rings in the presence of R-DOI, TCB2, and 4F4PP.
These aortic rings are implanted into matrigel basement membrane and incubated in endothelial cell growth medium containing vascular endothelial growth factor. Aortic rings are continuously incubated in the presence of 5-HT2A receptor agonists and antagonists at the indicated concentrations and examined by microscopy daily. Extensive sprouting, branching and networking of new blood vessels can be observed in control aortic rings, where multiple images needed to be stitched together in order to capture the extensive blood vessel network formed.

[5] = test system: cancerous retinoblastoma cells (Y-79); test: Cytotoxicity by lysis, retinoblastoma cells; format: cell-based; conditions: varying doses
Description: (§1) FIG. 17 is a series of graphs showing the effect of R-DOI dose on cytotoxicity of healthy retinal pigment epithelial cells (APRE) and cancerous retinoblastoma cells (Y-79) at 24 hours (top), 48 hours (middle), and 72 hours (bottom).
(§2) Healthy (APRE) and cancerous (Y-79) retinal cell lines were treated with varying doses of R-DOI and monitored for cytotoxicity by lysis at 24 hour intervals.

[6] = test system: healthy retinal pigment epithelial cells (APRE); test: Cytotoxicity by lysis, healthy retinal cells; format: cell-based; conditions: highest dose tested
Description: as §1, §2

[7] = relative to BSS controls and TFT controls, by day 12 post-infection

## COc1cc(CC(C)N)c(OC)cc1I (stereo not drawn) [DOI, 1-(4-Iodo-2,5-dimethoxyphenyl)propan-2-amine]
HSV-1; day 1 post-explant
  ganglia positive for infectious HSV-1 (number/total): 0/7
  percentage positive for infectious HSV-1: (0%)
HSV-1; day 2 post-explant
  ganglia positive for infectious HSV-1 (number/total): 0/7
  percentage positive for infectious HSV-1: (0%)
HSV-1; day 3 post-explant
  ganglia positive for infectious HSV-1 (number/total): 0/7
  percentage positive for infectious HSV-1: (0%)
HSV-1; day 4 post-explant
  ganglia positive for infectious HSV-1 (number/total): 0/7
  percentage positive for infectious HSV-1: (0%)
HSV-1; day 5 post-explant
  ganglia positive for infectious HSV-1 (number/total): 0/7
  percentage positive for infectious HSV-1: (0%)
HSV-1; day 6 post-explant
  ganglia positive for infectious HSV-1 (number/total): 0/7
  percentage positive for infectious HSV-1: (0%)
HSV-1; day 7 post-explant
  ganglia positive for infectious HSV-1 (number/total): 0/7
  percentage positive for infectious HSV-1: (0%)
HSV-1; day 8 post-explant
  ganglia positive for infectious HSV-1 (number/total): 1/7
  percentage positive for infectious HSV-1: (14.3%)
HSV-1; day 9 post-explant
  ganglia positive for infectious HSV-1 (number/total): 1/7
  percentage positive for infectious HSV-1: (14.3%)
HSV-1; day 10 post-explant
  ganglia positive for infectious HSV-1 (number/total): 2/7
  percentage positive for infectious HSV-1: (28.6%)
HSV-1; relative to mock
  delay in reactivation of HSV-1 from TGs: 2 fold
HSV-1; relative to mock treated neurons
  degree of reactivation and amount of infectious virus shed from latent neurons (PFU/ml/TG; PFU/ml/positive TG): significantly inhibited the degree of reactivation and amount of infectious virus shed from latent neurons
HSV-1
  HSV-1 reactivation from latency (in words): maintains latency of HSV-1 within reactivation induced neurons
[1]
  vascular-like tubular growth from HMEC spheroids: abrogated formation of vascular-like tubular growth
[2]
  clinical presentation of edema and chemosis: greatly reduced
  vascularization of the eye: resolution of vascularization
[3]
  animal body weight: retained
[3]; by day 15
  eyes exhibiting complete clinical resolution: 60%
[3]; day 15 post infection
  histopathology of the eye (cornea): normal ocular morphology with an absence of clinical signs of ocular disease
[3]; drops for 7 days post infection, chronic disease assessed up to day 15
  development of all clinically scored parameters: suppressed development of all clinically scored parameters
[3]; herpetic eye disease model
  control of acute and chronic vision-threatening disease compared to TFT: superior at controlling both acute and chronic vision-threatening disease
[3]; [7]
  neovascularization score: decreased
  slit lamp score: decreased
  stroma capacity score: decreased
[4]; compared to BSS control, by day 16 post-infection
  clinical scores (three metrics): even greater improvement in each metric
[4]; relative to BSS controls, by day 12 post-infection, 4 μl/eye 4x daily for 8 days
  clinical scores (slit-lamp biomicroscopy, stromal opacity/inflammation, corneal neovascularization): decreased score in all three metrics

## O=c1[nH]c(=O)n([C@H]2C[C@H](O)[C@@H](CO)O2)cc1C(F)(F)F [TFT, trifluorothymidine, reference compound]
[3]; 1% TFT
  HSV replication: complete inhibition of HSV replication
[3]
  animal body weight: did not change body weight relative to BSS controls

## NCCc1c[nH]c2ccc(O)cc12 [Serotonin, 5 hydroxytryptamine, reference compound]
[1]
  vascular-like tubular growth from HMEC spheroids: induced vascularization-like replication and tubule growth

## COc1cc(C[C@@H](C)N)c(OC)cc1I [R-DOI, R-2,5-Dimethoxy-4-iodoamphetamine]
HSV-1
  HSV-1 reactivation from latency (in words): inhibits HSV-1 reactivation from latent neurons
HSV-1; listed as (R)-DOI
  HSV-1 reactivation from latency (in words): inhibited HSV-1 reactivation from latency
Aortic rings; 10 nM concentration
  inhibitory effects for neovascularization, sprouting, branching, and networking: began to no longer be as effective
Aortic rings; VEGF-containing endothelial growth medium, matrigel
  blood vessel sprouting, branching and formation: inhibited blood vessel sprouting, branching and formation
[3]
  HSV-induced pathological vascularization of the eye: suppressed HSV-induced pathological vascularization of the eye
[3]; listed as (R)-DOI
  HSV-induced pathological vascularization of the eye: demonstrated anti-vascularization properties
[5]; Y-79, 24 hours
  cytotoxicity by lysis: strong, dose-dependent toxicity
[5]; Y-79, 48 hours
  cytotoxicity by lysis: killing effect was saturated at all doses
[6]
  cytotoxicity by lysis: modest cytotoxicity
